Target: bovine cardiac myosin (Bos taurus (Bovine), UniProt Q9BE39)
Assay: Myosin inhibitory potency: PK/LDH-coupled ATPase assay on bovine skinned cardiac myofibrils
Format: biochemical
Conditions: pCa=6.25, 50 μM ATP, 25° C., read-out: myosin inhibition activity IC50
Protocol: The average rates of ATPase inhibition, and the IC50 values are determined by Victor Nivo multimode plate reader (PerkinElmer, USA).
As to the assays background, a biochemical assay couples the ATPase activity of bovine cardiac myosin to an enzymatic coupling system consisting of pyruvate kinase and lactate dehydrogenase (PK/LDH) and monitoring the absorbance decrease of NADH (at 340 nm) as a function of time to measure the inhibitory ability of small molecule agents. In the assay, PK converts ADP (Adenosine diphosphate) to ATP (adenosine triphosphate) by converting PEP (phosphoenolpyruvate) to pyruvate. Pyruvate is then converted to lactate by LDH by converting NADH (nicotinamide adenine dinucleotide) to NAD (oxidized nicotinamide adenine dinucleotide).
In our experiments, bovine skinned cardiac myofibrils were isolated from the frozen bovine left ventricle as myosin's source in the ATPase assay. The calcium concentration that achieves a 50% (pCa50 or pCa=6.25) activation of the myofibril system was chosen as the final condition for assessing the activation activity according to the literature (DOI: 10.1074/jbc.M117.776815). Myofibrils ATPase activity was measured in a buffered solution containing 12 mM PIPES (piperazine-N, N′-bis(2-ethane sulfonic acid) and 2 mM magnesium chloride at pH 6.8 (PM12 buffer). Final assay conditions were 1 mg/mL of bovine cardiac myofibrils, 1:20 of stock PK/LDH (Sigma-Aldrich, Cat No. P0294-5X5ML), 50 μM ATP, 1 mM DTT (dithiothreitol), 0.75 mM NADH, 1.5 mM PEP at pCa50 (pCa=6.25). Compounds were dissolved in DMSO (dimethyl sulfoxide). Serial dilution of compounds was created such that the final desired concentration of compound would be achieved in a volume of 150 μL with a fixed DMSO concentration of 2% (v/v). 75 μL of a solution containing bovine cardiac myofibrils, PK/LDH, and calcium were added to a 96 well plate for a 7 point dose-response. In some circumstances, 10 point-response was used to repeat the ATPase assays on compounds of interest. Compounds were added to the myofibrils solution and incubated for 5 minutes. The enzymatic reaction was started with the addition of 75 μL of a solution containing ATP, PEP, NADH, compounds, and calcium. The ATPase activity was measured by reading absorbance at 340 nm in a PerkinElmer Victor Nivo plate reader at 25° C. in kinetic mode for 15 minutes using clear bottom plates. The slopes of the absorbance changes as a function of time for the first 10 minutes were normalized to slopes on the control wells containing all reagents, including DMSO, but without compounds. This normalized rate was then plotted as a function of small molecule concentration in GraphPad prism 9. The data were fitted to a four-parameter fit, and IC50 was calculated using Graphpad Prism 9.

Sequence of bovine cardiac myosin (Q9BE39 whole entry): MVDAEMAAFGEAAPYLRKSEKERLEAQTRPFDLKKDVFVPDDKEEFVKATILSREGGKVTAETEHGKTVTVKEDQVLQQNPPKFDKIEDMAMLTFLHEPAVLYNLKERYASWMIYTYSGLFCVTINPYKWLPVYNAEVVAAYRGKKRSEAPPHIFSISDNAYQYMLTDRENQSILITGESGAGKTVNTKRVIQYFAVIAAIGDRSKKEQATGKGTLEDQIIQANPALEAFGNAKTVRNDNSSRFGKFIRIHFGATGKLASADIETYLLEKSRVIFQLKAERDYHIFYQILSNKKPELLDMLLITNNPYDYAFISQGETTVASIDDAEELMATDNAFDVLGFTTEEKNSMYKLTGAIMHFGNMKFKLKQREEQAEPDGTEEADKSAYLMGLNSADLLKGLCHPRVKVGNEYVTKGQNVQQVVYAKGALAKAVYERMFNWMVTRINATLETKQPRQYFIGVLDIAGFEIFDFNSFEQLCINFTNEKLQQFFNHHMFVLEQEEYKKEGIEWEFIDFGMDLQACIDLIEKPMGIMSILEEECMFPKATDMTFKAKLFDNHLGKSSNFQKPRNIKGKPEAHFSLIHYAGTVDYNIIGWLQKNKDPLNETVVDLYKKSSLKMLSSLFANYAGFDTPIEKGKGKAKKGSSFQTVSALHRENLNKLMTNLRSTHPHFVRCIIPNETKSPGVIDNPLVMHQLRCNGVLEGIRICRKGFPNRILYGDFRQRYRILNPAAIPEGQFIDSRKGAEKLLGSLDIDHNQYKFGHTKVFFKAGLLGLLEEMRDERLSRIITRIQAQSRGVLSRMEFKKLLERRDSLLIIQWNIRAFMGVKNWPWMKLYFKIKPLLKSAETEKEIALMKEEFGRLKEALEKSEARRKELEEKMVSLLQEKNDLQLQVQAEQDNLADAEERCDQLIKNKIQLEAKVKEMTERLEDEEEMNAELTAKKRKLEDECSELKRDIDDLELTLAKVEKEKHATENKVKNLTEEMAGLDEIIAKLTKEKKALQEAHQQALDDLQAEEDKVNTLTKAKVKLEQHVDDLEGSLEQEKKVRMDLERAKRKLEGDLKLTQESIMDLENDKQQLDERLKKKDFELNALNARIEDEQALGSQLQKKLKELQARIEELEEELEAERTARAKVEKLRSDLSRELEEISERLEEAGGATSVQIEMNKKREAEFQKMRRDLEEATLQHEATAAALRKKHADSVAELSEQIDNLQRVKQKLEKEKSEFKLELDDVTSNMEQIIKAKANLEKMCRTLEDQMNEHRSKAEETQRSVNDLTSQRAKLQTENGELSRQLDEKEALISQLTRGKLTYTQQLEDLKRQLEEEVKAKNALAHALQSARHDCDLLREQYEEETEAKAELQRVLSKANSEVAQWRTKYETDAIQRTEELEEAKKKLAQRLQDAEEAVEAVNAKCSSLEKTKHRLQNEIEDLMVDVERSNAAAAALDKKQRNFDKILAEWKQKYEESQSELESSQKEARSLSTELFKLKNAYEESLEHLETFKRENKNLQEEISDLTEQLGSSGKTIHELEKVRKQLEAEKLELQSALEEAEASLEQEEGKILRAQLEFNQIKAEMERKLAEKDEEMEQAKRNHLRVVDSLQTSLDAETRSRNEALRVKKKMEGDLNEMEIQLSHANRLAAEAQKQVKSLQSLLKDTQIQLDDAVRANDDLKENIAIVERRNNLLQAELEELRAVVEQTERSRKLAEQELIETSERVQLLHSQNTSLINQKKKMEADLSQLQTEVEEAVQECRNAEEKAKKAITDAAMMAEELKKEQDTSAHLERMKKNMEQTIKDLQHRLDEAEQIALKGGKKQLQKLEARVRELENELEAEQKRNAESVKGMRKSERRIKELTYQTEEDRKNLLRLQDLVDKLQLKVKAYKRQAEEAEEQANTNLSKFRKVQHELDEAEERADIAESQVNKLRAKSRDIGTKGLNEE
Sequence of bovine cardiac myosin (P85100 whole entry partner): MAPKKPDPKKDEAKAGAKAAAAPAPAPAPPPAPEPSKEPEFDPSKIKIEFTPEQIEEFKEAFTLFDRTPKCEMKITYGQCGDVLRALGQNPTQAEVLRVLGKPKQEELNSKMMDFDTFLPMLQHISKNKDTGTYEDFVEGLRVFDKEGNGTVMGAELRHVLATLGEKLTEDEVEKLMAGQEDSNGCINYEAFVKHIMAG
Sequence of bovine cardiac myosin (Q3SZE5 whole entry partner): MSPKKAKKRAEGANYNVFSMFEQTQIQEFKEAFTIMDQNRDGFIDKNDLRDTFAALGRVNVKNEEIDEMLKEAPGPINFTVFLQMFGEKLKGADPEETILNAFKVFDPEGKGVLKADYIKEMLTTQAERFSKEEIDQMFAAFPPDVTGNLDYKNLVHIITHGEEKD

| Structure (SMILES) | IC50 |
| --- | --- |
| CC(C)n1c(=O)nc(N[C@@H](C)c2cccc([C@@H](C)O)c2)[nH]c1=O [Example 271] | 870 nM |
| CC(C)n1c(=O)nc(N[C@@H](C)c2cccc(C(C)(C)O)c2)[nH]c1=O [Example 307] | 1870 nM |
| O=c1nc(NC(c2ccccc2)C(F)F)[nH]c(=O)n1C1CCOCC1 (centres unmarked) [Example 143] | 7640 nM |
| C[C@H](Nc1nc(=O)n(C2CCCC2)c(=O)[nH]1)C1CCCCC1 [Example 78] | 4890 nM |
| Cc1cccc([C@H](C)Nc2nc(=O)n([C@H](C)C(F)(F)F)c(=O)[nH]2)c1 [Example 41] | 2190 nM |
| Cc1ccc(F)c([C@H](C)Nc2nc(=O)n([C@@H](C)C(F)(F)F)c(=O)[nH]2)c1 [Example 311] | 2360 nM |
| C[C@H](Nc1nc(=O)n(C2CCC(F)(F)CC2)c(=O)[nH]1)C1CCCCC1 [Example 55] | 4630 nM |
| C[C@H](Nc1nc(=O)n([C@H]2CC[C@@H](F)CC2)c(=O)[nH]1)C1CCCCC1 [Example 86] | 1830 nM |
| CC(C)C(=O)N1CCC(n2c(=O)nc(N[C@@H](C)C3CCCCC3)[nH]c2=O)CC1 [Example 234] | 7080 nM |
| CC(Nc1nc(=O)n(C2CCNCC2)c(=O)[nH]1)c1ccccc1F (centres unmarked) [Example 190] | 4650 nM |
| C[C@H](Nc1nc(=O)n(C(C2CC2)C(F)(F)F)c(=O)[nH]1)C1CCCCC1 (some centres unmarked) [Example 18] | 480 nM |
| CC(C)n1c(=O)nc(N[C@H](c2cccc(C3CN(CC(F)(F)F)C3)c2)C(F)F)[nH]c1=O [Example 261] | 760 nM |
| COCCN1CCC(n2c(=O)nc(N[C@@H](C)C3CCCCC3)[nH]c2=O)CC1 [Example 33] | 3860 nM |
| CC(=O)N1CCC(n2c(=O)nc(N[C@@H](C)C3CCCCC3)[nH]c2=O)CC1 [Example 236] | 2650 nM |
| C[C@H](Nc1nc(=O)n([C@H](C)C(F)(F)F)c(=O)[nH]1)C1CCCCC1 [Example 15] | 2160 nM |
| Cc1cccc([C@H](C)Nc2nc(=O)n(C3CCCCC3)c(=O)[nH]2)c1 [Example 93] | 8030 nM |

| Structure (SMILES) | IC50 |
| --- | --- |
| CC(C)n1c(=O)nc(N[C@@H](C)c2cccc([C@H](C)O)c2)[nH]c1=O [Example 342] | 2070 nM |
| CC(O)c1cccc([C@@H](Nc2nc(=O)n(C(C)C)c(=O)[nH]2)C(F)F)c1 (some centres unmarked) [Example 267] | 410 nM |
| C[C@H](Nc1nc(=O)n(C2(C)CCCC2)c(=O)[nH]1)C1CCCCC1 [Example 90] | 8720 nM |
| Cc1cccc([C@H](C)Nc2nc(=O)n([C@@H]3CCOC[C@@H]3F)c(=O)[nH]2)c1 [Example 315] | 1470 nM |
| CC(Nc1nc(=O)n(C2CCOCC2)c(=O)[nH]1)C1CC2(CCC2)C1 (centres unmarked) [Example 110] | 9000 nM |
| CNC(=O)N1CCC(n2c(=O)nc(N[C@@H](C)c3cccc(C)c3)[nH]c2=O)CC1 [Example 245] | 5500 nM |
| CC(C)n1c(=O)nc(N[C@@H](C)c2cccc(F)c2)[nH]c1=O [Example 181] | 2380 nM |
| C[C@H](Nc1nc(=O)n([C@H]2CCOC[C@H]2F)c(=O)[nH]1)c1ccc(F)cc1F [Example 281] | 2260 nM |
| CC(C)(C#N)c1cccc([C@@H](Nc2nc(=O)n(C3CCOCC3)c(=O)[nH]2)C(F)F)c1 [Example 268] | 1070 nM |
| CO[C@@H]1COCC[C@H]1n1c(=O)nc(N[C@@H](C)c2cccc(C)c2)[nH]c1=O [Example 299] | 1180 nM |
| CC(Nc1nc(=O)n(C2CCNCC2)c(=O)[nH]1)c1cccc(F)c1 (centres unmarked) [Example 191] | 7630 nM |
| C[C@H](Nc1nc(=O)n(C2CCNCC2)c(=O)[nH]1)C1CCCCC1 [Example 235] | 1660 nM |
| CC(C)n1c(=O)nc(NCCC2CCCCC2)[nH]c1=O [Example 65] | 4230 nM |
| CC(Nc1nc(=O)n(C2CCN(C(=O)OC(C)(C)C)CC2)c(=O)[nH]1)c1ccc(C(F)(F)F)cc1 (centres unmarked) [Example 145] | 3770 nM |
| Cc1cccc([C@H](C)Nc2nc(=O)n(C3CCN(C(C)C)CC3)c(=O)[nH]2)c1 [Example 37] | 1290 nM |

Now from value to compound:

| IC50 | Structure (SMILES) |
| --- | --- |
| 2140 nM | C[C@H](Nc1nc(=O)n(C2CCOCC2)c(=O)[nH]1)c1c(F)cccc1F [Example 12] |
| 4850 nM | C[C@H](Nc1nc(=O)n(C2CCOCC2)c(=O)[nH]1)c1cccc(-n2cncn2)c1 [Example 201] |
| 550 nM | O=c1nc(N[C@H](c2cccc(Br)c2)C(F)F)[nH]c(=O)n1C1CCOCC1 [Example 270] |
| 700 nM | C[C@@H](Nc1nc(=O)n(C2CCOCC2)c(=O)[nH]1)c1ccc(C2CC2)cc1 [Example 334] |
| 1580 nM | CC(Nc1nc(=O)n(C2CCOCC2)c(=O)[nH]1)c1cccc(Br)c1 (centres unmarked) [Example 120] |
| 2580 nM | C[C@H](Nc1nc(=O)n(C2CCOCC2)c(=O)[nH]1)c1cccc([C@@H](O)C(F)(F)F)c1 [Example 346] |
| 1300 nM | C[C@H](Nc1nc(=O)n(C2CCOCC2)c(=O)[nH]1)c1c(F)cccc1Cl [Example 13] |
| 5430 nM | Cc1cnn(-c2cccc([C@H](C)Nc3nc(=O)n(C4CCOCC4)c(=O)[nH]3)c2)c1 [Example 204] |
| 2850 nM | Cc1cccc([C@H](CO)Nc2nc(=O)n(C3CCOCC3)c(=O)[nH]2)c1 [Example 317] |
| 700 nM | C[C@H](Nc1nc(=O)n(C2CCOCC2)c(=O)[nH]1)c1cccc(-c2ccccc2F)c1 [Example 224] |
| 10600 nM | CC(Nc1nc(=O)n(C2CCOCC2)c(=O)[nH]1)c1ccccc1O (centres unmarked) [Example 101] |
| 370 nM | C[C@H](Nc1nc(=O)n(C2CCOCC2)c(=O)[nH]1)c1cccc(Cl)c1 [Example 154] |
| 1030 nM | C[C@@H](Nc1nc(=O)n(C2CCOCC2)c(=O)[nH]1)c1ccc(C(F)(F)F)cc1 [Example 333] |
| 1750 nM | C[C@H](Nc1nc(=O)n(C2CCOCC2)c(=O)[nH]1)c1cccc(-c2ccc(F)cc2)c1 [Example 226] |
| 520 nM | C[C@H](Nc1nc(=O)n(C2CCOCC2)c(=O)[nH]1)c1ccc(F)c(Br)c1 [Example 158] |
| 880 nM | C[C@H](Nc1nc(=O)n(C2CCOCC2)c(=O)[nH]1)c1ccc2c(c1)OC(F)(F)O2 [Example 298] |
| 3900 nM | C[C@H](Nc1nc(=O)n(C2CCOCC2)c(=O)[nH]1)c1ccccc1 [Example 46] |
| 2310 nM | O=c1nc(N[C@H](c2ccc(F)cc2F)C(F)F)[nH]c(=O)n1C1CCOCC1 [Example 263] |
| 1300 nM | C[C@H](Nc1nc(=O)n(C2CCOCC2)c(=O)[nH]1)c1cccc(N2CCCCC2)c1 [Example 216] |
| 1320 nM | C[C@H](Nc1nc(=O)n(C2CCOCC2)c(=O)[nH]1)c1cccc(C2CCOCC2)c1 [Example 207] |
| 910 nM | COc1cc([C@H](C)Nc2nc(=O)n(C3CCOCC3)c(=O)[nH]2)ccc1F [Example 171] |
| 240 nM | Cc1cccc(C(C)Nc2nc(=O)n(C3CCOCC3)c(=O)[nH]2)c1 (centres unmarked) [Example 133] |
| 1360 nM | C[C@H](Nc1nc(=O)n(C2CCOCC2)c(=O)[nH]1)c1ccc(F)c(F)c1 [Example 164] |
| 1270 nM | C[C@H](Nc1nc(=O)n(C2CCOCC2)c(=O)[nH]1)c1cccc(C#N)c1 [Example 327] |
| 850 nM | CC(C)c1ccc([C@H](C)Nc2nc(=O)n(C3CCOCC3)c(=O)[nH]2)cc1 [Example 328] |
| 1520 nM | C[C@H](Nc1nc(=O)n(C2CCOCC2)c(=O)[nH]1)c1cccc(F)c1F [Example 170] |
| 1080 nM | Cc1cc([C@H](C)Nc2nc(=O)n(C3CCOCC3)c(=O)[nH]2)ccc1Cl [Example 330] |
| 1320 nM | C[C@H](Nc1nc(=O)n(C2CCOCC2)c(=O)[nH]1)c1cccc(-c2ccccc2)c1 [Example 220] |

Reference: patent publication US20240262804A1, “NITROGEN-CONTAINING HETEROCYCLIC KETONES, PREPARATION METHODS AND MEDICINAL USES THEREOF” (Hansoh Bio LLC, priority 2021, published 2024)
